Consider 28 compounds from ChEMBL document CHEMBL1201862, “PubChem BioAssay data set” (2004).

Targets include Cytochrome P450 3A4 (Homo sapiens, UniProt P08684); Cytochrome P450 2C9 (Homo sapiens, UniProt P11712); Cytochrome P450 2D6 (Homo sapiens, UniProt P10635).
For assay [1], the target named is Luciferin 4-monooxygenase (Photinus pyralis, UniProt P08659). Put plainly: firefly luciferase enzyme inhibitors, dose response, biochemical, luminescence (AID 1891).
Assay [2] is described as follows: Luminescence Cell-Based Dose Confirmation HTS to Identify Inhibitors of Platelet Dense Granule Release. [Related pubchem assays: 1663 (Primary HTS), 1678 (Summary of Project)]. Type of assay: functional.
In the next assay the test system is INS1. Put plainly: beta cell apoptosis inhibitors, cytokine rescue, dose response, luminescence, retest (AID 449756).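 Note: cell death triggered by IL-1 beta plus TNF-alpha plus IFN-gamma mixture; protective hits raise ATP signal compared with cytokine alone wells.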 Type of assay: functional, cell-based. Particulars: Rattus norvegicus.
Assay [3] concerns the target T1, Rac GTPase-activating protein 1 (Homo sapiens, UniProt Q9H0H5).
T1 sequence (Q9H0H5 whole entry): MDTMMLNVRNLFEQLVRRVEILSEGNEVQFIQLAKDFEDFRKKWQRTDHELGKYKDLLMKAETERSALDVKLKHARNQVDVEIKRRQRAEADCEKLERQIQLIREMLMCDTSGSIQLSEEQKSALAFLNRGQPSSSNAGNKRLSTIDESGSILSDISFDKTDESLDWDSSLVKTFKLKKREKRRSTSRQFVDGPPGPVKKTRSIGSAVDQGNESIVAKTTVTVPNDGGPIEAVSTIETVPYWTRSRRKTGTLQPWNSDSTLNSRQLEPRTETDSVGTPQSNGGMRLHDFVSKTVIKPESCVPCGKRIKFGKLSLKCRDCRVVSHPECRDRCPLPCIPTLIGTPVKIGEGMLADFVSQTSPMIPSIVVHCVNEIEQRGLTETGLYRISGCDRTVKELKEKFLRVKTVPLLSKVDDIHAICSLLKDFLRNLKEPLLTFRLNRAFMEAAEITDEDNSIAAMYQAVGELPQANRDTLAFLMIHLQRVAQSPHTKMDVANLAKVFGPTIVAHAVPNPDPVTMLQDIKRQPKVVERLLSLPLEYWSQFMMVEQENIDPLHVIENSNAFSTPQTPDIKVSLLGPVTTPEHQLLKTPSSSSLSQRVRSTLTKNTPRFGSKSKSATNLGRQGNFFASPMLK
Put plainly: MgcRacGAP GTPase-activating activity inhibitors, confirmation, biochemical, ADP Hunter fluorescence, primary and confirmatory (AID 624330). Type of assay: functional.

Assay [4] can be described thus: inhibitors of intracellular T. cruzi replication, confirmation, NIH3T3 host cells, beta-gal luminescence (AID 2044).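 Note: intracellular parasites grown in NIH/3T3 mouse fibroblasts as host cells; luminescent beta-galactosidase reporter signal from transgenic T. cruzi replicating inside host cells; inhibitors lower the luminescence signal.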 In kind it is functional, cell-based.
Assay [5] can be described thus: cytotoxicity toward NIH3T3 fibroblasts, dose response, counter-screen, cell-based, ATP luminescence, mouse fibroblasts (AID 2010).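 Note: cells exposed to compound for about 90 hours before reading.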 Type of assay: functional.
The nature of assay [6]: inhibitors of SNCA 5'UTR-driven reporter translation, confirmation, H4 neuroglioma cells, luminescence (AID 1988). In kind it is functional, cell-based.
A short description of assay [7]: inhibitors of firefly luciferase expression or activity, dose response, H4 neuroglioma cells, luminescence (AID 1990). In kind it is functional, cell-based.
A short description of assay [8]: Luminescence Cell-Based Dose Response HTS to Identify Inhibitors of 5'UTR Stem-Loop Driven Prion Protein mRNA Translation in H4 Neuroglioblastoma Cells. [Related pubchem assays: 1827 (Project Summary), 1813 (Primary HTS)]. In kind it is functional.
In a further assay the target is Cytochrome P450 2C19 (Homo sapiens, UniProt P33261). The assay can be described thus: Cytochrome panel assay with activity outcomes. Panel member name: p450-cyp2c19 Compounds with AC50 equal or less than 10 uM are considered active. Conditions: read-out: AC50. Type of assay: functional.
The target of the next assay is T2, Cytochrome P450 1A2 (Homo sapiens, UniProt P05177).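 Note: PubChem cytochrome P450 panel assay, CYP1A2 panel member.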
T2 sequence (P05177 whole entry): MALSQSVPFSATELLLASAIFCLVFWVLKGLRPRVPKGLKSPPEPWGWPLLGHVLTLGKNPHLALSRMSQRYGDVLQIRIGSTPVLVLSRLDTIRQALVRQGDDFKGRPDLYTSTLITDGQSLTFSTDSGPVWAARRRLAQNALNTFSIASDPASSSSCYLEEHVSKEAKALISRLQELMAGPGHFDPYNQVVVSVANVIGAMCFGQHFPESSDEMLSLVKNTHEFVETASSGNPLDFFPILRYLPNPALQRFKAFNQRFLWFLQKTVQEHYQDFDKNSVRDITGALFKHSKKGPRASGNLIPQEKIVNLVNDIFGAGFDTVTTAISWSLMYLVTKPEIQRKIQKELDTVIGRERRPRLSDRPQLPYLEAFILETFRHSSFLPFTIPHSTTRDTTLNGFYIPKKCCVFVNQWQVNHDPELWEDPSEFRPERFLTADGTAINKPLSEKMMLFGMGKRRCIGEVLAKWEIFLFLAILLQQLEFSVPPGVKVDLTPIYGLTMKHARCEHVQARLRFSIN

Assay [9] in a line: Luminescence Cell-Based Dose Response HTS to Identify Activators of Luciferase Translation or Activity in H4 […] Cells. [Related pubchem assays: 1829 (Project Summary), 1814 (Primary HTS)]. In kind it is functional.
The subject of a further assay is H4. Put plainly: Luminescence Cell-Based Dose Response HTS to Identify Activators of 5'UTR Stem-Loop Driven Prion Protein mRNA Translation in H4 Neuroglioblastoma Cells. [Related pubchem assays: 1829 (Project Summary), 1814 (Primary HTS)]. In kind it is functional. Particulars: Homo sapiens.
Assay [10] deals with T3, Corticotropin-releasing factor receptor 2/Corticotropin-releasing factor-binding protein (Homo sapiens, UniProt P24387+Q13324).
T3 sequence (Q13324 whole entry): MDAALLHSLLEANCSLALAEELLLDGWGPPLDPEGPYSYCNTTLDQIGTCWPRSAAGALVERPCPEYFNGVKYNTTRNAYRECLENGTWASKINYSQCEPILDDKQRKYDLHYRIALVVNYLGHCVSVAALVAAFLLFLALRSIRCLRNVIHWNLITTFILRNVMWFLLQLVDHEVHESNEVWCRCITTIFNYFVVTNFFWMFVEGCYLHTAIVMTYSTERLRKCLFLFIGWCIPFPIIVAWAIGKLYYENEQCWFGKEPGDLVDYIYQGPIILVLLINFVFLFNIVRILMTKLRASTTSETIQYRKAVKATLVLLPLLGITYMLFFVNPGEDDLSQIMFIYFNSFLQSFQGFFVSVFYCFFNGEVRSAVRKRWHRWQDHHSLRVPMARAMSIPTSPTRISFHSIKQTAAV
T3 sequence (P24387 whole entry): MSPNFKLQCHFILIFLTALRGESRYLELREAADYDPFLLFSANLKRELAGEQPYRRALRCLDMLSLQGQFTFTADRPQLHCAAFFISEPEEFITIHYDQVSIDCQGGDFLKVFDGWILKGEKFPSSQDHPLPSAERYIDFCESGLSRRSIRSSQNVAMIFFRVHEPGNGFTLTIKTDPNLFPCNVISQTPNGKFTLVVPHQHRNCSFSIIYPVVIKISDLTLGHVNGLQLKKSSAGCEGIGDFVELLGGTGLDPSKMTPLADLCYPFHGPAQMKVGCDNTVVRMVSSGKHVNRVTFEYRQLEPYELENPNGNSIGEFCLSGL
Put plainly: activators of CRF receptor 2 with binding protein – uHTS hits, confirmation (AID 602473). In kind it is functional. Particulars: read-out: EC50_Mean.

Assay [11] deals with T3, Corticotropin-releasing factor receptor 2/Corticotropin-releasing factor-binding protein. The assay can be described thus: Dose Response confirmation of uHTS hits for small molecule antagonists of the CRF-binding protein and CRF-R2 receptor complex. Particulars: read-out: IC50_Mean. Type of assay: functional.
The test system of another assay is Streptococcus. Put plainly: Group A Streptococcus viability loss, dose response, counter-screen for streptokinase expression inhibitor project, luminescence, BacTiterGlo (AID 1915).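 Note: potency for reduction of bacterial viability or growth.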 Type of assay: functional, organism-based.
Assay [12] has as its system Streptococcus sp. 'group A'. Put plainly: growth inhibition of control SK(-) GAS strain, dose response, counter-screen for streptokinase expression inhibitor project, luminescence, kanamycin, BacTiterGlo, confirmation (AID 1900). In kind it is functional, organism-based.

Molecules are shown by their SMILES. Active and inactive are the calls of the source.

Chain of Cytochrome P450 3A4 (P08684 whole entry): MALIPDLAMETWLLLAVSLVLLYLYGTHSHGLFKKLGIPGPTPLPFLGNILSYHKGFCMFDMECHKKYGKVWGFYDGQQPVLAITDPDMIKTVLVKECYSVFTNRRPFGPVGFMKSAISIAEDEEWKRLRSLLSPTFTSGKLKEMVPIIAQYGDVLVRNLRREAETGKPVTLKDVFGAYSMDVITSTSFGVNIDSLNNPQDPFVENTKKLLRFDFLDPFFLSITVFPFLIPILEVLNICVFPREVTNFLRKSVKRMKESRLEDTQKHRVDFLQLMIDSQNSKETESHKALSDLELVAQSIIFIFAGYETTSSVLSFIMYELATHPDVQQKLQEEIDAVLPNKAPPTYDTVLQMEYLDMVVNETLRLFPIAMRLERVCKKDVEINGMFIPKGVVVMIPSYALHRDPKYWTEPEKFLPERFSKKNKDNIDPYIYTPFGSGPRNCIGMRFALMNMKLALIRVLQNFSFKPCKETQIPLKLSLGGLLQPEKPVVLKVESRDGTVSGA
Chain of Cytochrome P450 2D6 (P10635 whole entry): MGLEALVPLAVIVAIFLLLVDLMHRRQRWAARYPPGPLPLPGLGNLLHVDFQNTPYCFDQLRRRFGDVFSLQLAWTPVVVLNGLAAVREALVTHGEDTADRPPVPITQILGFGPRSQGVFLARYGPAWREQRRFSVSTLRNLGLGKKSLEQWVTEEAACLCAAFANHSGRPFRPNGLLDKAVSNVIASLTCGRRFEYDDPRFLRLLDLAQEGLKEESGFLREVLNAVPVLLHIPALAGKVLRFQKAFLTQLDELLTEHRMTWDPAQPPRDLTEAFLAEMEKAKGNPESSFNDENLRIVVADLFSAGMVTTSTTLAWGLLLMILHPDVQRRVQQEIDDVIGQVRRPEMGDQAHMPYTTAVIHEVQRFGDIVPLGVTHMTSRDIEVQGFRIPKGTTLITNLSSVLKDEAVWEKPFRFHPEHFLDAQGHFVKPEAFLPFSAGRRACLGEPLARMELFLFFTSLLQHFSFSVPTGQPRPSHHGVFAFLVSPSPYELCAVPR
Chain of Luciferin 4-monooxygenase (P08659 whole entry): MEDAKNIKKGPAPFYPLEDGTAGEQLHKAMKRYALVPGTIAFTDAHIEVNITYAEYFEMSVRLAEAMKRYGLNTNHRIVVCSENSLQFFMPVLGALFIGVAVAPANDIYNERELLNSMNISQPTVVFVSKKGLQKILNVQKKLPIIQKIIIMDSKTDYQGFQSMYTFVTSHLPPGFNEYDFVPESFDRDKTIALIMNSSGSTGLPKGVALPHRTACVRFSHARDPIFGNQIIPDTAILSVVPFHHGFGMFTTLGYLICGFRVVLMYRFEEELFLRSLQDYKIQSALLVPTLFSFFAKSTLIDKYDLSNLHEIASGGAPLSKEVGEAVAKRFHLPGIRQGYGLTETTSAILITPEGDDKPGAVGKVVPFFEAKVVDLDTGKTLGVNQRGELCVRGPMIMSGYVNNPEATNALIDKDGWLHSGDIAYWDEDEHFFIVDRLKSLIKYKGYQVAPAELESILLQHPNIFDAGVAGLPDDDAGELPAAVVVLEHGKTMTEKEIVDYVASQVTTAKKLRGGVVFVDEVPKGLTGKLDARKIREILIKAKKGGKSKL
Chain of Cytochrome P450 2C9 (P11712 whole entry): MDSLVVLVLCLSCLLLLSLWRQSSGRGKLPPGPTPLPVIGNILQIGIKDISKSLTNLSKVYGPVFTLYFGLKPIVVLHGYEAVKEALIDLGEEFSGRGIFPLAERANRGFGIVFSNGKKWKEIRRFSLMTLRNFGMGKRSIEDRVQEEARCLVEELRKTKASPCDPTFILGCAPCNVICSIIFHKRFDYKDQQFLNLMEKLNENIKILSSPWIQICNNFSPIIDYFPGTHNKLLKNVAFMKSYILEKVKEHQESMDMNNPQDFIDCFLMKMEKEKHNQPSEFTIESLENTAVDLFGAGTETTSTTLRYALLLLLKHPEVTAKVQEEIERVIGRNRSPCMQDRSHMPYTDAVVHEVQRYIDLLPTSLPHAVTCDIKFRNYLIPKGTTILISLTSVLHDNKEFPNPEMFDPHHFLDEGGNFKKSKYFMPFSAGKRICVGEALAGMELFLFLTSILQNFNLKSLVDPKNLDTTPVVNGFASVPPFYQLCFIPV
Chain of Cytochrome P450 2C19 (P33261 whole entry): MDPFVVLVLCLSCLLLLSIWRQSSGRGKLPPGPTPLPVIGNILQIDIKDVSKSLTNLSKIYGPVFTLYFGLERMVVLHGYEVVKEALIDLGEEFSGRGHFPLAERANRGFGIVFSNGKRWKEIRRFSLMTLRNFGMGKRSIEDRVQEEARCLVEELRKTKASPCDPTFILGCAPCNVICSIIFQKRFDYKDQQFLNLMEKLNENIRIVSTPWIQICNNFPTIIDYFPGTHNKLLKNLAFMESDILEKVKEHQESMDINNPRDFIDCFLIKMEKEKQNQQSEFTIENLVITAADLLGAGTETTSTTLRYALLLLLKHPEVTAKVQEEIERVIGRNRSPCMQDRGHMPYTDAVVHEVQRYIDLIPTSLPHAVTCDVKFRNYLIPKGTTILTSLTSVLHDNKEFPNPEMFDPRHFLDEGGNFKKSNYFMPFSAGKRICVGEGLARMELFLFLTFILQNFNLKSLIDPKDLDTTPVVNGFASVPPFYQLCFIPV

Regarding `Cc1ccc(C)n1NC(=O)c1ccccc1`, the figures for the AC50 at Cytochrome P450 3A4 and on Cytochrome P450 2C9 were 31.6 µM (inconclusive) and 0.141 µM (inconclusive), respectively.
In the case of `COCCNC(=O)/C(C#N)=C/c1ccc(O)cc1`, the EC50 in assay [1] was 4.8 µM (active); in assay [2], 1.62 µM (active).
Taken in the same sequence, the figures for `Cc1c(Cl)ccc2sc(NC(=O)C3CC3)nc12` were > 112 µM (not active) and > 112 µM (not active).
For `Cc1ccccc1OC1C(=O)N(Cc2ccc3c(c2)OCO3)C1c1sccc1C` (stereo unspecified), the AC50 in the assay with INS1 was 11.4 µM (active).
For the compound `O=C(O)c1nc2nc(Cl)c(Cl)nc2[nH]1`, the AC50 at Cytochrome P450 3A4 is 3.16 µM (inconclusive).
`CNc1nc2c3ccccc3n(C(C)=O)c2s1`: the IC50 in assay [3] is 184 µM (active). In addition, the EC50 in [1] and in [2] was > 112 µM (not active) throughout.
As for `CC1CCCCN1S(=O)(=O)c1ccc(S(=O)(=O)N(CC(=O)Nc2ccccc2)Cc2cccs2)cc1` (stereo unspecified), the EC50 in assay [1] was > 112 µM (not active); in assay [2], > 112 µM (not active); in assay [4] it was 1.7 µM (active); in assay [5], > 60 µM (inconclusive).
Take `Cc1nc2cc(-c3cccc(F)c3)nn2c(C)c1CCC(=O)N1CCN(c2ccccn2)CC1`: the EC50 was 12.4 µM (active) in [6], 11.9 µM (active) in assay [7] and 14.1 µM (active) in [8].
Take `CN1CCC(NC(=O)Nc2cccc(C(F)(F)F)c2)CC1`: the EC50 in [1] and in [2] was > 112 µM (not active) throughout.
Turning to `C[C@@H](Cc1ccccc1)Nc1ncnc2c1ncn2[C@@H]1O[C@@H](CO)[C@H](O)[C@@H]1O`, the AC50 at Cytochrome P450 3A4 was 10 µM (inconclusive).
The same measure, in the same setting: with `COC(=O)[C@H](N)Cc1ccc(Cl)cc1` the figure was 31.6 µM (inconclusive).
Take `Cc1ccc(-c2nc(-c3nccc4ccccc34)oc2-c2ccccc2)cc1`: the AC50 at Cytochrome P450 3A4 and at Cytochrome P450 2C19 was 5.01 µM (inconclusive) in each case.
For the compound `c1cc2c(cc1C1CCCCC1)c1c3n2CCN[C@H]3CCC1`, the AC50 at Cytochrome P450 3A4 is 31.6 µM (inconclusive); at Cytochrome P450 2C9, 20 µM (inconclusive); on Cytochrome P450 2D6, 12.6 µM (inconclusive).
With `CC(C)(C)Nc1nc(N2CCCC2)nc(N2CCCC2)n1`, the results for the EC50 in assay [6], in [7] and in assay [8] were 16.7 µM (active), 16.7 µM (active) and 19.6 µM (active), respectively. On Cytochrome P450 2C9, the AC50 was 5.01 µM (inconclusive).
Consider `CCCCCCC(=O)N1C/C=C\C(c2ccc(OC)cc2)N(Cc2ccc(F)cc2)C(=O)[C@H]1Cc1ccccc1` (stereo partly specified), for which the EC50 in [6] is 9.71 µM (active); in [7], > 120 µM (not active); in assay [8], > 120 µM (not active). In the assay on INS1, the AC50 was 6.16 µM (active).
Regarding `Cc1ccccc1OCCNc1ccc(C(F)(F)F)cc1[N+](=O)[O-]`, the half-maximal activity concentration (AC50) on Cytochrome P450 3A4 is 31.6 µM (inconclusive); at Cytochrome P450 2D6 it was 5.01 µM (inconclusive); on Cytochrome P450 2C19, 0.316 µM (inconclusive).
As to `Nc1ccc(Nc2ccc([N+](=O)[O-])cc2[N+](=O)[O-])cc1`, the AC50 with INS1 was 59.4 µM (active).
`Cc1ccc(-c2nnc(C)c(N3CC(C)OC(C)C3)n2)cc1` (stereo unspecified): the concentration at half-maximal activity (AC50) at Cytochrome P450 3A4 is 5.01 µM (inconclusive); at Cytochrome P450 1A2, 4.47 µM (inconclusive).
In the case of `O=C(c1ccc(Cl)s1)N1CCc2ccccc21`, the figures for the EC50 (in assay [9]; in the assay with H4) were 0.124 µM (active) and 56.2 µM (inconclusive), respectively.
For the compound `Cc1ccc(-n2nnnc2SCCNS(=O)(=O)c2ccccc2)cc1C`, the EC50 is > 120 µM (not active) in assay [6], > 120 µM (not active) in assay [7] and 20.5 µM (active) in assay [8].
On to `O=C(CN(c1ccc(Cl)cc1)S(=O)(=O)c1ccc(Cl)c([N+](=O)[O-])c1)NCCc1ccccc1`, for which the EC50 is 9.06 µM (active) in assay [6]; 3.56 µM (active) in [4]; > 120 µM (not active) in assay [7]; 8.52 µM (active) in [8]; > 60 µM (not active) in assay [5].
Take `O=C(COC(=O)c1ccncc1)Nc1cc(S(=O)(=O)N2CCOCC2)ccc1Cl`: the EC50 in [10] was > 53 µM (inactive). In addition, in assay [11], the IC50 is > 47.1 µM (inactive).
For `COc1ccc(N(C(=O)c2ccco2)C(C(=O)NC2CCCC2)c2ccc(N3CCOCC3)cc2)c(OC)c1` (stereo unspecified), in that order: > 53 µM (inactive) and > 47.1 µM (inactive).
Take `COc1ccc2[nH]c3c(c2c1)CCN1C(=O)C(CC(=O)NCCc2ccccn2)C[C@H](C(=O)N(C(C)C)C(C)C)[C@@]31C` (stereo partly specified): in assay [10], the EC50 is > 53 µM (inactive). In assay [11], the IC50 was > 47.1 µM (inactive).
On to `Cc1[nH]cnc1C(=O)N/N=C/c1c(Cl)cccc1Cl`, for which the EC50 in assay [1] was 4.22 µM (active); in assay [2], 1.54 µM (active).
On to `O=C(CNc1ccccc1)N/N=C/c1c(O)ccc2ccccc12`, for which the EC50 with Streptococcus was 0.939 µM (active); in [12] it was 1.02 µM (active). The AC50 in the assay on INS1 is 3.29 µM (active).
Turning to `O=C(N/N=C\c1ccc(Sc2ccccn2)o1)c1cccc(Br)c1`, the AC50 on Cytochrome P450 3A4 was 22.4 µM (inconclusive); at Cytochrome P450 2D6, 28.2 µM (inconclusive).
For the compound `CSc1ccc(/C=N/NC(=O)c2ccc(O)cc2)cc1`, the figures for the EC50 in [1] and in assay [2] were 1.57 µM (active) and 13.9 µM (active), respectively.
